# Experimental data published in patent US10829796B2, “Bacteria identification and antimicrobial susceptibility test” (priority 2015, dated 2020).
# Tests used:
# Type in all cases: cell-based
# Streptococcus uberis [1] = test: Group D Streptococci identification, esculin/ferric citrate in TSB (blackening = growth), bacteria in milk; details: TSB containing 0.5% esculin and 0.25% ferric citrate + 80 uL spiked milk; 100 ug/ml aztreonam and/or 0.5 mg/mL phenol red
# Method: By way of illustration, the same experiment was conducted as above, only this time using clinical milk samples obtained from a bovine animal suspect of being infected with mastitis.
# However, Applicant has discovered that increased amounts of esculin and ferric citrate may be used in milk derived clinical samples. For example, at concentrations of at least 2% esculin and 1% ferric citrate, the growth of Streptococcus uberis is not inhibited.
# Note, in the experiments above, the clinical sample tested was milk obtained from a bovine animal suspected of being infected by mastitis. If a non-milk clinical sample were to be tested, then inclusion of a stabilizing agent (e.g. milk in the form of a liquid or powder) would be required in order to suppress the growth inhibitory effect of esculin and ferric citrate at the higher concentrations used according to this invention.
# Applicant further discovered that TSB containing 0.5% esculin and 0.25% ferric citrate and 80 uL of spiked Streptococcus uberis milk sample which also contained 100 ug/ml aztreonam concentration (antibiotic which has activity against many gram-bacteria such as E. coli) and/or in combination with 0.5 mg/mL phenol red led to easy detectable colour changes. No inhibition of Streptococcus uberis due to phenol red or aztreonam was detected.
# Escherichia coli = test: Antibiotic susceptibility testing (colour of media), spiked milk; details: for Colour of media in each well: 37° C., plate configuration #3
# Staphylococcus aureus = test: as above; details: for Colour of media: Tryptic Soy (70 ul composition 2c), bacteria sample 5c; for Colour of media in each well: T~16 h, 37° C., plate configuration #3
# Streptococcus uberis [2] = test: as above; details: for Colour of media in each well: T~16 h, 37° C., bacteria samples 6d, plate configuration #3
# [3] = bacteria sample 4d 4 μl + Composition 27 1 μl + drug solution (100 μg Aztreonam per ml water) 0.5 μl
# [4] = bacteria sample 4d 8 μl + Composition 27 2 μl + drug solution (100 μg Aztreonam per ml water) 1 μl
# [5] = bacteria sample 4d 20 μl + Composition 27 5 μl + drug solution (100 μg Aztreonam per ml water) 2.5 μl
# [6] = bacteria sample 4d 40 μl + Composition 27 10 μl + drug solution (100 μg Aztreonam per ml water) 5 μl
# [7] = bacteria sample 4d 80 μl + Composition 27 20 μl + drug solution (100 μg Aztreonam per ml water) 10 μl
# [8] = bacteria sample 4d 160 μl + Composition 27 40 μl + drug solution (100 μg Aztreonam per ml water) 20 μl
# [9] = bacteria sample 6d 4 μl + Composition 27 1 μl + drug solution (100 μg Aztreonam per ml water) 0.5 μl
# [10] = bacteria sample 6d 8 μl + Composition 27 2 μl + drug solution (100 μg Aztreonam per ml water) 1 μl
# [11] = bacteria sample 6d 20 μl + Composition 27 5 μl + drug solution (100 μg Aztreonam per ml water) 2.5 μl
# [12] = bacteria sample 6d 40 μl + Composition 27 10 μl + drug solution (100 μg Aztreonam per ml water) 5 μl
# [13] = bacteria sample 6d 80 μl + Composition 27 20 μl + drug solution (100 μg Aztreonam per ml water) 10 μl
# [14] = bacteria sample 6d 160 μl + Composition 27 40 μl + drug solution (100 μg Aztreonam per ml water) 20 μl
smiles,measurement,setting,value
C[C@H]1[C@H](NC(=O)/C(=N\OC(C)(C)C(=O)O)c2csc(N)n2)C(=O)N1S(=O)(=O)O [aztreonam],Inhibition of Streptococcus uberis,Streptococcus uberis [1],No inhibition
same,Colour of media in each well,"Escherichia coli; T~16 h, bacteria samples 4c, Aztreonam 0.001 μg/ml",yellow
same,Colour of media in each well,"Escherichia coli; T~16 h, bacteria samples 4c, Aztreonam 0.01 μg/ml",yellow
same,Colour of media in each well,"Escherichia coli; T~16 h, bacteria samples 4c, Aztreonam 0.1 μg/ml",yellow
same,Colour of media in each well,"Escherichia coli; T~16 h, bacteria samples 4c, Aztreonam 1 μg/ml",yellow
same,Colour of media in each well,"Escherichia coli; T~16 h, bacteria samples 4c, Aztreonam 10 μg/ml",yellow
same,Colour of media after 24 hours incubation at 37° C.,Escherichia coli; [3],Red
same,Colour of media prior incubation,Escherichia coli; [3],Red
same,Colour of media after 24 hours incubation at 37° C.,Escherichia coli; [4],Red
same,Colour of media prior incubation,Escherichia coli; [4],Red
same,Colour of media after 24 hours incubation at 37° C.,Escherichia coli; [5],Red
same,Colour of media prior incubation,Escherichia coli; [5],Red
same,Colour of media after 24 hours incubation at 37° C.,Escherichia coli; [6],Red
same,Colour of media prior incubation,Escherichia coli; [6],Red
same,Colour of media after 24 hours incubation at 37° C.,Escherichia coli; [7],Red
same,Colour of media prior incubation,Escherichia coli; [7],Red
same,Colour of media after 24 hours incubation at 37° C.,Escherichia coli; [8],Red
same,Colour of media prior incubation,Escherichia coli; [8],Red
same,Colour of media in each well,"Escherichia coli; t~16 h, bacteria samples 4e, Aztreonam 0.001 μg/ml",yellow
same,Colour of media in each well,"Escherichia coli; t~16 h, bacteria samples 4e, Aztreonam 0.01 μg/ml",yellow
same,Colour of media in each well,"Escherichia coli; t~16 h, bacteria samples 4e, Aztreonam 0.1 μg/ml",yellow
same,Colour of media in each well,"Escherichia coli; t~16 h, bacteria samples 4e, Aztreonam 1 μg/ml",red
same,Colour of media in each well,"Escherichia coli; t~16 h, bacteria samples 4e, Aztreonam 10 μg/ml",red
same,Colour of media,"Staphylococcus aureus; T = 0 hours (pre incubation), drug 0.01 μg/ml",red
same,Colour of media,"Staphylococcus aureus; T = 0 hours (pre incubation), drug 0.05 μg/ml",red
same,Colour of media,"Staphylococcus aureus; T = 0 hours (pre incubation), drug 0.1 μg/ml",red
same,Colour of media,"Staphylococcus aureus; T = 0 hours (pre incubation), drug 0.5 μg/ml",red
same,Colour of media,"Staphylococcus aureus; T = 0 hours (pre incubation), drug 1 μg/ml",red
same,Colour of media,"Staphylococcus aureus; T = 0 hours (pre incubation), drug 5 μg/ml",red
same,Colour of media,"Staphylococcus aureus; T = 0 hours (pre incubation), drug 10 μg/ml",red
same,Colour of media,"Staphylococcus aureus; T = 0 hours (pre incubation), drug 50 μg/ml",red
same,Colour of media,"Staphylococcus aureus; T = 0 hours (pre incubation), drug 100 μg/ml",red
same,Colour of media,"Staphylococcus aureus; T = 0 hours (pre incubation), drug 500 μg/ml",red
same,Colour of media,"Staphylococcus aureus; T = 15-24 h at 35° C., drug 0.01 μg/ml",yellow
same,Colour of media,"Staphylococcus aureus; T = 15-24 h at 35° C., drug 0.05 μg/ml",yellow
same,Colour of media,"Staphylococcus aureus; T = 15-24 h at 35° C., drug 0.1 μg/ml",yellow
same,Colour of media,"Staphylococcus aureus; T = 15-24 h at 35° C., drug 0.5 μg/ml",yellow
same,Colour of media,"Staphylococcus aureus; T = 15-24 h at 35° C., drug 1 μg/ml",yellow
same,Colour of media,"Staphylococcus aureus; T = 15-24 h at 35° C., drug 5 μg/ml",yellow
same,Colour of media,"Staphylococcus aureus; T = 15-24 h at 35° C., drug 10 μg/ml",yellow
same,Colour of media,"Staphylococcus aureus; T = 15-24 h at 35° C., drug 50 μg/ml",yellow
same,Colour of media,"Staphylococcus aureus; T = 15-24 h at 35° C., drug 100 μg/ml",yellow
same,Colour of media,"Staphylococcus aureus; T = 15-24 h at 35° C., drug 500 μg/ml",yellow
same,Colour of media in each well,"Staphylococcus aureus; bacteria samples 5c, Aztreonam 0.001 μg/ml",red
same,Colour of media in each well,"Staphylococcus aureus; bacteria samples 5c, Aztreonam 0.01 μg/ml",yellow
same,Colour of media in each well,"Staphylococcus aureus; bacteria samples 5c, Aztreonam 0.1 μg/ml",yellow
same,Colour of media in each well,"Staphylococcus aureus; bacteria samples 5c, Aztreonam 1 μg/ml",yellow
same,Colour of media in each well,"Staphylococcus aureus; bacteria samples 5c, Aztreonam 10 μg/ml",yellow
same,Colour of media in each well,"Staphylococcus aureus; bacteria samples 5e, Aztreonam 0.001 μg/ml",yellow
same,Colour of media in each well,"Staphylococcus aureus; bacteria samples 5e, Aztreonam 0.01 μg/ml",yellow
same,Colour of media in each well,"Staphylococcus aureus; bacteria samples 5e, Aztreonam 0.1 μg/ml",yellow
same,Colour of media in each well,"Staphylococcus aureus; bacteria samples 5e, Aztreonam 1 μg/ml",yellow
same,Colour of media in each well,"Staphylococcus aureus; bacteria samples 5e, Aztreonam 10 μg/ml",yellow
same,Colour of media in each well,Streptococcus uberis [2]; Aztreonam 0.001 μg/ml,yellow
same,Colour of media in each well,Streptococcus uberis [2]; Aztreonam 0.01 μg/ml,yellow
same,Colour of media in each well,Streptococcus uberis [2]; Aztreonam 0.1 μg/ml,yellow
same,Colour of media in each well,Streptococcus uberis [2]; Aztreonam 1 μg/ml,yellow
same,Colour of media in each well,Streptococcus uberis [2]; Aztreonam 10 μg/ml,yellow
same,Colour of media after 24 hours incubation at 37° C.,Streptococcus uberis [2]; [9],Black
same,Colour of media prior incubation,Streptococcus uberis [2]; [9],Red
same,Colour of media after 24 hours incubation at 37° C.,Streptococcus uberis [2]; [10],Black
same,Colour of media prior incubation,Streptococcus uberis [2]; [10],Red
same,Colour of media after 24 hours incubation at 37° C.,Streptococcus uberis [2]; [11],Black
same,Colour of media prior incubation,Streptococcus uberis [2]; [11],Red
same,Colour of media after 24 hours incubation at 37° C.,Streptococcus uberis [2]; [12],Black
same,Colour of media prior incubation,Streptococcus uberis [2]; [12],Red
same,Colour of media after 24 hours incubation at 37° C.,Streptococcus uberis [2]; [13],Black
same,Colour of media prior incubation,Streptococcus uberis [2]; [13],Red
same,Colour of media after 24 hours incubation at 37° C.,Streptococcus uberis [2]; [14],Black
same,Colour of media prior incubation,Streptococcus uberis [2]; [14],Red
